Article PMC10545747, “Development of cyclopeptide inhibitors of cGAS targeting protein-DNA interaction and phase separation” (Nature Communications, 2023)
Several values for one entry are separate records, joined by “and”; a condition that tells them apart may be missing. Identical values can stand only once. Square brackets hold non-standard residues; d marks the D form. Peptide text beside a SMILES is read from it.

Assays:
Trex1^-/- BMDMs = test: qPCR of Ifnb1, Cxcl10, Il6 mRNA in Trex1-deficient macrophages; type: cell-based, mouse; design: key to Ifnb1 mRNA level (Fig. 7a) / Cxcl10 mRNA level (Fig. 7a) / Il6 mRNA level (Fig. 7a): fold change relative to WT BMDM group
Protocol: Fold changes are relative to WT BMDM group. p = 0.002 (Ifnb1); p = 0.008 (Cxcl10); p = 0.0005 (Il6). b Schematic representation illustrating the experimental design in the Trex1^-/- mice model of autoimmune diseases. c Survival curves of WT and Trex1^−/− mice treated with DMSO or XQ2B (10 mg/kg) every other day for 11 consecutive days (n = 10 mice per group). p = 0.0352. d WT mice (n = 6) or Trex1^-/- mice (n = 6) were injected intravenously with DMSO or 10 mg/kg XQ2B every other day for 7 consecutive days. Representative H&E-stained tissue sections from WT or Trex1^-/- mice treated with DMSO or XQ2B. The panels are at ×20 magnification. […] Scale bar, 50 μm. Data are representative of two independent experiments with similar results in (f), or three independent experiments in (a) or two independent experiments in (d, e). […] Source data are provided as a Source Data file.
(§1) The indicated cells were stimulated with either ISD (Sangon Biotech), HSV-1 (Provided by Dr. Zhengfan Jiang), HSV60mer (Sangon Biotech), SATE-cddA[70], 2’3’-cGAMP (Invivogen, Cat# tlrl-nacga23-1), ADU-S100 (MedChemExpress, Cat# HY-12885A) or Poly(I:C) (Invivogen, Cat# tlrl-pic) after XQ2 or XQ2B treatment. Total RNA was isolated from indicated cells that incubated with the drugs for indicated time or mice tissues by using NucleoZOL reagent (MACHEREY-NAGEL) according to the manufacturer’s instructions. The quantifications of mRNA levels were carried out by real-time PCR using a PerfectStart® Uni RT&qPCR Kit (TransGen Biotech) on the QuantStudio 5 qPCR machine (Applied Biosystems). Samples were carried out in triplicate and the target CT values were normalized to GAPDH CT values. Primers of qPCR used in this study can be found in Supplementary Table S2.
C57BL/6 6–8 weeks old wild type (WT) mice were purchased from Gempharmatech. C57BL/6 Trex1^+/- mice were purchased from Cyagen. Trex1^-/- mice were generated by further mating the male and female Trex1^+/- mice, and 8-week-old male Trex1^-/- mice were used in the experiment. Mice were housed in groups of up to 5 mice/cage at 18 °C − 24 °C ambient temperatures with 40–60% humidity. Mice were maintained on a 12 h light/ dark cycle 6 am to 6 pm. Food and water were available ad libitum. Femurs and tibias were removed from sex-matched mice of 6–8 weeks old, and the ends were clipped. Marrow was pushed from bones by using a syringe, and cell clumps were broken apart into cell particles by pipetting in PBS, and passed through a 70 μm cell strainer. Cells were resuspended in red blood cell lysis buffer (Solarbio) for 5 min after being centrifuged with 200 × g for 5 min, and were resuspended in cell culture media (DMEM) with an additional M-CSF (50 ng/ml) after centrifugation, and then were seeded into a 12-well plate. […]

HSV-1-infected WT mice = test: HSV-1 infection of WT mice (serum ELISA, brain qPCR, IHC); type: in vivo, mouse; design: brain HSV-1 mRNA, qPCR, Fig. 6d / brain HSV-1(UL5) mRNA, qPCR, Fig. 6d: unit not given here
Protocol: Fig. 6 XQ2B attenuates the host innate antiviral response in vivo. a Chemical structure of XQ2 and XQ2B. b, c WT mice (n = 7) were injected intravenously with DMSO or XQ2B (10 mg/kg) for 3 h, and then administrated intravenously with HSV-1 at 1 × 10^7 pfu per mouse for 6 h. Serum from mice was collected for ELISA analysis of the levels of IFN-β (b) and CXCL10 (c). p = 0.0013 (b); p = 0.0175 (c). d Brains from mice (n = 6) in (b, c) were collected for qPCR analysis of the induction of HSV-1 and HSV-1(UL5) mRNA. p = 0.0287 (HSV-1); p = 0.0136 (HSV1-UL5). e Brains from mice in (b, c) were collected for immunohistochemistry (IHC) analysis with an anti-HSV-1 antibody. Tissue sections were visualized using microscopy. Scale bar, 25 μm. Data are representative of two independent experiments in (b–e). […] Source data are provided as a Source Data file.
as §1
THP1 cells were seeded into 96-well plates, and cell culture supernatants were collected and analyzed by ELISA kits for human IFNβ levels (R&D Systems, Cat# DY814-05) and human CXCL10 levels (R&D Systems, Cat# DY266-05) according to the manufacturer’s instructions. Mice serum was collected and analyzed by ELISA kits for mouse IFNβ levels (R&D Systems, Cat# DY8234-05) and mouse CXCL10 levels (R&D Systems, Cat# DY466-05) according to the manufacturer’s protocols.
Tissues were resected and fixed successively in 4% paraformaldehyde, and embedded in paraffin according to the standard procedure, and then sectioned into 10-μm slices and placed on positively charged microscope slides. Sections of the brain were subjected to immunohistochemical (IHC) staining with an anti-HSV-1 antibody (Abcam, 1:100) and HRP-conjugated anti-rabbit IgG antibody (Cell Signaling, Cat# 7074, 1:200) according to standard procedures. Sections of the heart, stomach, tongue, kidney and muscle were stained with hematoxylin and eosin. Tissue sections were visualized using an Olympus IX73 microscope (20× Objective).

[1] = XQ2B 10 mg/kg i.v., individual mice

## CC(C)C[C@@H]1NC(=O)[C@H](CCCNC(=N)N)NC(=O)[C@H](C(C)C)NC(=O)[C@@H]2CCCN2C(=O)[C@@H](Cc2ccccc2)NC(=O)[C@H](CC(C)C)NC(=O)[C@H](CCCNC(=N)N)NC(=O)[C@H]([C@@H](C)O)NC(=O)[C@H](C)NC(=O)[C@@H](Cc2ccccc2)NC1=O [XQ2B] (cyclo([dF]ATRL[dF]PVRL))
Trex1^-/- BMDMs; 10 μM, 24 h
  expression of Ifnb1, Cxcl10 and Il6 in Trex1^-/- BMDMs: significantly suppressed the expression of Ifnb1, Cxcl10 and Il6 in Trex1^-/- BMDMs
Trex1^-/- BMDMs; Trex1-/- BMDMs, XQ2B vs DMSO
  Cxcl10 mRNA level (Fig. 7a): 8.243 and 7.282 and 8.602
  Ifnb1 mRNA level (Fig. 7a): 2.99 and 2.308 and 2.77
  Il6 mRNA level (Fig. 7a): 7.711 and 7.588 and 8.111
HSV-1-infected WT mice; 10 mg/kg intravenous
  production of IFN-β and CXCL10 upon HSV-1 infection in mice: significantly impaired the production of IFN-β and CXCL10 upon HSV-1 infection in mice
  virus infection in brain tissues of mice: promoted virus infection in the brain tissues of mice
HSV-1-infected WT mice; XQ2B 10 mg/kg i.v. 3 h before HSV-1 1 × 10^7 pfu i.v., 6 h, individual mice
  serum IFN-β, ELISA, Fig. 6b: 234.609 and 247.685 and 151.05 and 229.558 and 128.472 and 521.967 and 514.758
HSV-1-infected WT mice; XQ2B 10 mg/kg i.v., HSV-1 6 h, individual mice
  serum CXCL10, ELISA, Fig. 6c: 2266.42 and 1272.19 and 1516.42 and 1969.73 and 1635.92 and 1666.83 and 2034.41
HSV-1-infected WT mice; [1]
  brain HSV-1(UL5) mRNA, qPCR, Fig. 6d: 2.362 and 11.4426 and 5.671 and 29.1839 and 18.1733 and 12.9008
  brain HSV-1 mRNA, qPCR, Fig. 6d: 4.055 and 17.5547 and 15.5667 and 41.0988 and 9.75 and 4.86
